Data reported in ChEMBL document CHEMBL4414548 (J Med Chem, 2019).

Assays:
[1] = Metabolic stability in rat liver microsomes assessed as parent compound remaining after 10 mins; type: ADME, Microsome; conditions: read-out: Stability
[2] = Cmax in Balb/c mouse assessed as 6-((5-Fluoropyridin-2-yl)amino)-4-((2-(methylsulfonyl)phenyl)amino)nicotinamide level at 10 mg/kg, po after 3 hrs; type: ADME, organism-based; parameters: dose 10 mg/kg, route oral; conditions: in vivo
[3] = Cmax in Balb/c mouse assessed as 6-((5-Fluoropyridin-2-yl)amino)-4-((2-(methylsulfonyl)phenyl)amino)nicotinamide level at 3 mg/kg, iv after 1 hr; type: ADME, organism-based; parameters: dose 3 mg/kg, route intravenous; conditions: in vivo
[4] = Cmax in Balb/c mouse assessed as 6-((5-Fluoropyridin-2-yl)amino)-4-((2-(methylsulfonyl)phenyl)amino)nicotinamide level at 3 mg/kg, iv after 0.5 hrs; type: ADME, organism-based; parameters: dose 3 mg/kg, route intravenous; conditions: in vivo
[5] = Drug concentration in Balb/c mouse at 3 mg/kg, iv after 3 hrs; type: ADME, organism-based; conditions: in vivo, read-out: Drug uptake
JAK3/JAK1 = JAK3/JAK1 (Homo sapiens, UniProt P23458+P52333); assay: Inhibition of JAK1/JAK3 (unknown origin) in IL-2 stimulated cells by cell based assay
[6] = Drug concentration in Balb/c mouse at 3 mg/kg, iv after 0.05 hrs; type: ADME, organism-based; conditions: in vivo, read-out: Drug uptake
[7] = Drug concentration in Balb/c mouse at 3 mg/kg, iv after 1 hr; type: ADME, organism-based; conditions: in vivo, read-out: Drug uptake
[8] = target: T1, Non-receptor tyrosine-protein kinase TYK2 (Homo sapiens, UniProt P29597); assay: Inhibition of fluorescein-labeled kinase tracer binding to His-TVMV-fused TYK2 JH2 domain (575 to 869 residues) (unknown origin) measured after 90 mins by HTRF assay
JAK2/JAK1 = JAK2/JAK1 (Homo sapiens, UniProt O60674+P23458); assay: Inhibition of JAK1/JAK2 (unknown origin) in GM-CSF stimulated cells by cell based assay
[9] = Cmax in Balb/c mouse assessed as 6-((5-Fluoropyridin-2-yl)amino)-4-((2-(methylsulfonyl)phenyl)amino)nicotinamide level at 3 mg/kg, iv after 0.05 hrs; type: ADME, organism-based; parameters: dose 3 mg/kg, route intravenous; conditions: in vivo
[10] = Cmax in Balb/c mouse assessed as 6-((5-Fluoropyridin-2-yl)amino)-4-((2-(methylsulfonyl)phenyl)amino)nicotinamide level at 10 mg/kg, po after 7 hrs; type: ADME, organism-based; parameters: dose 10 mg/kg, route oral; conditions: in vivo
[11] = target: T2, Voltage-gated inwardly rectifying potassium channel KCNH2 (Homo sapiens, UniProt Q12809); assay: Inhibition of human ERG by fluorescence polarization assay
[12] = AUClast in Balb/c mouse at 3 mg/kg, iv; type: ADME, organism-based; parameters: dose 3 mg/kg, route intravenous, time 0 - last; conditions: in vivo
[13] = Drug concentration in Balb/c mouse at 10 mg/kg, po after 0.5 hrs; type: ADME, organism-based; conditions: in vivo, read-out: Drug uptake
[14] = target: 3',5'-cyclic-AMP phosphodiesterase 4D (Homo sapiens, UniProt Q08499); assay: Inhibition of [3H]cAMP binding to recombinant human His-Tb fused PDE4D2 (86 to 413 residues) expressed in Escherichia coli using [3H]cAMP as substrate preincubated for 10 mins followed by [3H]cAMP addition and measured after 1 hr by scintillation proximity assay
[15] = Metabolic stability in mouse liver microsomes assessed as parent compound remaining after 10 mins; type: ADME, Microsome; conditions: read-out: Stability
[16] = Drug concentration in Balb/c mouse at 3 mg/kg, iv after 5 hrs; type: ADME, organism-based; conditions: in vivo, read-out: Drug uptake
[17] = Drug concentration in Balb/c mouse at 10 mg/kg, po after 7 hrs; type: ADME, organism-based; conditions: in vivo, read-out: Drug uptake
[18] = Cmax in Balb/c mouse assessed as 6-((5-Fluoropyridin-2-yl)amino)-4-((2-(methylsulfonyl)phenyl)amino)nicotinamide level at 10 mg/kg, po after 1 hr; type: ADME, organism-based; parameters: dose 10 mg/kg, route oral; conditions: in vivo
[19] = Cmax in Balb/c mouse assessed as 6-((5-Fluoropyridin-2-yl)amino)-4-((2-(methylsulfonyl)phenyl)amino)nicotinamide level at 10 mg/kg, po after 0.05 hrs; type: ADME, organism-based; parameters: dose 10 mg/kg, route oral; conditions: in vivo
[20] = Drug concentration in Balb/c mouse at 10 mg/kg, po after 0.05 hrs; type: ADME, organism-based; conditions: in vivo, read-out: Drug uptake
[21] = target: Tyrosine-protein kinase JAK1 (Homo sapiens, UniProt P23458); assay: Inhibition of JAK1 JH1 domain (unknown origin)
[22] = target: T1, Non-receptor tyrosine-protein kinase TYK2; assay: Inhibition of TYK2 JH2 domain in human whole blood assessed as inhibition of IFNalpha-induced STAT5 phosphorylation preincubated for 1 hr followed by IFNalpha stimulation and measured after 15 mins by fluorescence assay; type: tissue-based
[23] = Cmax in Balb/c mouse assessed as 6-((5-Fluoropyridin-2-yl)amino)-4-((2-(methylsulfonyl)phenyl)amino)nicotinamide level at 3 mg/kg, iv after 5 hrs; type: ADME, organism-based; parameters: dose 3 mg/kg, route intravenous; conditions: in vivo
[24] = AUClast in mouse at 10 mg/kg, po; type: ADME, organism-based; parameters: dose 10 mg/kg, route oral, time 0 - last; conditions: in vivo
[25] = Cmax in Balb/c mouse assessed as 6-((5-Fluoropyridin-2-yl)amino)-4-((2-(methylsulfonyl)phenyl)amino)nicotinamide level at 3 mg/kg, iv after 7 hrs; type: ADME, organism-based; parameters: dose 3 mg/kg, route intravenous; conditions: in vivo
[26] = Drug concentration in Balb/c mouse at 3 mg/kg, iv after 0.5 hrs; type: ADME, organism-based; conditions: in vivo, read-out: Drug uptake
[27] = Half life in Balb/c mouse at 3 mg/kg, iv; type: ADME, organism-based; conditions: in vivo
[28] = AUClast in Balb/c mouse at 10 mg/kg, po; type: ADME, organism-based; parameters: dose 10 mg/kg, time 0 - last, route oral; conditions: in vivo
[29] = Drug concentration in Balb/c mouse at 10 mg/kg, po after 5 hrs; type: ADME, organism-based; conditions: in vivo, read-out: Drug uptake
[30] = Drug concentration in Balb/c mouse at 10 mg/kg, po after 1 hr; type: ADME, organism-based; conditions: in vivo, read-out: Drug uptake
[31] = Cmax in mouse at 10 mg/kg, po; type: ADME, organism-based; parameters: dose 10 mg/kg, route oral; conditions: in vivo
[32] = target: Mast/stem cell growth factor receptor Kit (Homo sapiens, UniProt P10721); assay: Inhibition of cKIT (unknown origin)
[33] = Efflux ratio of permeability in human Caco2; type: ADME, cell-based; conditions: Caco-2
[34] = target: Non-receptor tyrosine-protein kinase TYK2 (Mus musculus, UniProt Q9R117); assay: Inhibition of TYK2 JH2 domain in mouse whole blood assessed as inhibition of IFNalpha-induced STAT1 phosphorylation preincubated for 1 hr followed by IFNalpha stimulation and measured after 15 mins by fluorescence assay; type: tissue-based
[35] = AUClast in Balb/c mouse assessed as 6-((5-Fluoropyridin-2-yl)amino)-4-((2-(methylsulfonyl)phenyl)amino)nicotinamide level at 3 mg/kg, iv; type: ADME, organism-based; parameters: dose 3 mg/kg, route intravenous, time 0 - last; conditions: in vivo
JAK2/TYK2 = JAK2/TYK2 (Homo sapiens, UniProt O60674+P29597); assay: Inhibition of TYK2/JAK2 in IL23-stimulated human Kit225 cells by steady-glo luciferase assay
[36] = Permeability across apical to basolateral side in human Caco2 cells; type: ADME, cell-based; conditions: Caco-2, read-out: permeability
[37] = Drug concentration in Balb/c mouse at 10 mg/kg, po after 3 hrs; type: ADME, organism-based; conditions: in vivo, read-out: Drug uptake
[38] = Volume of distribution at steady state in Balb/c mouse at 3 mg/kg, iv; type: ADME, organism-based; conditions: in vivo, read-out: Vdss
JAK1/TYK2 = JAK1/TYK2 (Homo sapiens, UniProt P23458+P29597); assay: Inhibition of TYK2/JAK1 in IFNalpha-stimulated human Kit225 cells by steady-glo luciferase assay
[39] = Oral bioavailability in Balb/c mouse at 10 mg/kg; type: ADME, organism-based; conditions: in vivo
[40] = target: Tyrosine-protein kinase JAK2 (Homo sapiens, UniProt O60674); assay: Inhibition of JAK2 JH1 domain (unknown origin)
[41] = Drug concentration in Balb/c mouse at 3 mg/kg, iv after 7 hrs; type: ADME, organism-based; conditions: in vivo, read-out: Drug uptake
[42] = target: T2, Voltage-gated inwardly rectifying potassium channel KCNH2; assay: Inhibition of human ERG by patch clamp assay
[43] = Metabolic stability in human liver microsomes assessed as parent compound remaining after 10 mins; type: ADME, Microsome; conditions: read-out: Stability
[44] = target: T1, Non-receptor tyrosine-protein kinase TYK2; assay: Inhibition of TYK2 JH1 domain (unknown origin)
[45] = Clearance in Balb/c mouse at 3 mg/kg, iv; type: ADME, organism-based; conditions: in vivo
[46] = Cmax in Balb/c mouse assessed as 6-((5-Fluoropyridin-2-yl)amino)-4-((2-(methylsulfonyl)phenyl)amino)nicotinamide level at 10 mg/kg, po after 5 hrs; type: ADME, organism-based; parameters: dose 10 mg/kg, route oral; conditions: in vivo
[47] = Cmax in Balb/c mouse assessed as 6-((5-Fluoropyridin-2-yl)amino)-4-((2-(methylsulfonyl)phenyl)amino)nicotinamide level at 3 mg/kg, iv after 3 hrs; type: ADME, organism-based; parameters: dose 3 mg/kg, route intravenous; conditions: in vivo
[48] = Cmax in Balb/c mouse assessed as 6-((5-Fluoropyridin-2-yl)amino)-4-((2-(methylsulfonyl)phenyl)amino)nicotinamide level at 10 mg/kg, po after 0.5 hrs; type: ADME, organism-based; parameters: dose 10 mg/kg, route oral; conditions: in vivo
[49] = Partition coefficient, log P of compound by HPLC analysis; type: physicochemical; conditions: octanol/water
[50] = AUClast in Balb/c mouse assessed as 6-((5-Fluoropyridin-2-yl)amino)-4-((2-(methylsulfonyl)phenyl)amino)nicotinamide level at 10 mg/kg, po; type: ADME, organism-based; parameters: dose 10 mg/kg, time 0 - last, route oral; conditions: in vivo

T1 sequence (P29597 whole entry, the tested form may be a part): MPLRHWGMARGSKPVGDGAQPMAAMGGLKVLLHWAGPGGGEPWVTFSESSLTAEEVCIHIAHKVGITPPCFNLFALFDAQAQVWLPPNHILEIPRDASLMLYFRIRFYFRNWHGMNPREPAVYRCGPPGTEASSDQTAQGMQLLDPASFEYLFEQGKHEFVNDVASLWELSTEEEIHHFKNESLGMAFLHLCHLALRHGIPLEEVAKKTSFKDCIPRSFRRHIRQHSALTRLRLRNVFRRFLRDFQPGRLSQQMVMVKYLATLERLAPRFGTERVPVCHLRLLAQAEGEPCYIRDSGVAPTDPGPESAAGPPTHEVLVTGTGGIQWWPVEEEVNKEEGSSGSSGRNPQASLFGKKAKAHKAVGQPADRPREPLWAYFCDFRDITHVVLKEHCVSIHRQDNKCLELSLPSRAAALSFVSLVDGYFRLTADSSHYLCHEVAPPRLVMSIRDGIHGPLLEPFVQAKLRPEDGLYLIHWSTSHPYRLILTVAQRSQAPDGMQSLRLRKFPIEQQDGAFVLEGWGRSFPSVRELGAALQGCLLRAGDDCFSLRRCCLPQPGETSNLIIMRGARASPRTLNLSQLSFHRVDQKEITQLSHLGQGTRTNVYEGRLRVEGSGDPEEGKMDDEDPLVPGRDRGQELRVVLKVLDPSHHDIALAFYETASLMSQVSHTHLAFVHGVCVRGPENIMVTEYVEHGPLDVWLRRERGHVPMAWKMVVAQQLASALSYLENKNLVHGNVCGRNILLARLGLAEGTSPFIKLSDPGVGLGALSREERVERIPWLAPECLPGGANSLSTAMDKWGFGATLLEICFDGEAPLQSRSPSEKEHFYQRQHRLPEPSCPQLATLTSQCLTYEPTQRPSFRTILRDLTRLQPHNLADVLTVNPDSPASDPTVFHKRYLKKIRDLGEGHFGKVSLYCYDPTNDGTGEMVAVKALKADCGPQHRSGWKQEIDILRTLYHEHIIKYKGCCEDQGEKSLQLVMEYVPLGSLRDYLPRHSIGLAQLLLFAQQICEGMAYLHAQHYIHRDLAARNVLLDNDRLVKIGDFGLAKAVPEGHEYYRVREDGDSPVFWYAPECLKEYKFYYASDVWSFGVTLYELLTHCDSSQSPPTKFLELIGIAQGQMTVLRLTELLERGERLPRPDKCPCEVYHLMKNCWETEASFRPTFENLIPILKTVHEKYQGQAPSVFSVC
T2 sequence (Q12809 whole entry): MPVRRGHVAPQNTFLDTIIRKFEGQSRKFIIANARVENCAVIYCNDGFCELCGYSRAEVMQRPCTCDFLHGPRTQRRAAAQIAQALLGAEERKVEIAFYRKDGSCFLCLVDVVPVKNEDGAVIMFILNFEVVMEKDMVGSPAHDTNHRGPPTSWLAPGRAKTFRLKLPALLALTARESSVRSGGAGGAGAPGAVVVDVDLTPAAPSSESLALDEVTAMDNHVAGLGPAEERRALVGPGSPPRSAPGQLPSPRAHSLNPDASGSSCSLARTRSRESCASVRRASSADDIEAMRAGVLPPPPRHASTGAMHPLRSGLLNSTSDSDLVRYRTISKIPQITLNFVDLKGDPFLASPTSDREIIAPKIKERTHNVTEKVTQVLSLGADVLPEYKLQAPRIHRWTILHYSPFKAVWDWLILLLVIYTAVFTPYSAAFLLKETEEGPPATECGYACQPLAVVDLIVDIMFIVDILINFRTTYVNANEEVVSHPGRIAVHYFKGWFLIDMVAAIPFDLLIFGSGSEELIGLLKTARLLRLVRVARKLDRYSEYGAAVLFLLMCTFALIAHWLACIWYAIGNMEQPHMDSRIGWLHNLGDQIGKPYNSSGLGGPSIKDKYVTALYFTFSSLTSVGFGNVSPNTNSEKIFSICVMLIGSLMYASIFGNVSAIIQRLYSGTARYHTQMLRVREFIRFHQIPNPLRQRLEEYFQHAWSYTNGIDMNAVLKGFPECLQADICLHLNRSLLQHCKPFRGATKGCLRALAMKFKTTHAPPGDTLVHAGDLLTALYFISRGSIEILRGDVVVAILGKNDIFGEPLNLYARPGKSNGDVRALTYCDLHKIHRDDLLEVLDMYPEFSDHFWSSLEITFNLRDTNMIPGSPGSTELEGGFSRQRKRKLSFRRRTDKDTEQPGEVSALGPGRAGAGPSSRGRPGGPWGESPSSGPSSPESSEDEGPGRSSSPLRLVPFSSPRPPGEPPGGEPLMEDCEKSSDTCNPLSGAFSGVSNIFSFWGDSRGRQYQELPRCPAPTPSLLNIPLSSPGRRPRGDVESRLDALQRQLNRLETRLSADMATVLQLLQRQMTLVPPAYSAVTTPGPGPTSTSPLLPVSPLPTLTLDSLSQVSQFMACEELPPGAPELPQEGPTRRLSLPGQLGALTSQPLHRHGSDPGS
Chain of JAK2/TYK2 (O60674 whole entry): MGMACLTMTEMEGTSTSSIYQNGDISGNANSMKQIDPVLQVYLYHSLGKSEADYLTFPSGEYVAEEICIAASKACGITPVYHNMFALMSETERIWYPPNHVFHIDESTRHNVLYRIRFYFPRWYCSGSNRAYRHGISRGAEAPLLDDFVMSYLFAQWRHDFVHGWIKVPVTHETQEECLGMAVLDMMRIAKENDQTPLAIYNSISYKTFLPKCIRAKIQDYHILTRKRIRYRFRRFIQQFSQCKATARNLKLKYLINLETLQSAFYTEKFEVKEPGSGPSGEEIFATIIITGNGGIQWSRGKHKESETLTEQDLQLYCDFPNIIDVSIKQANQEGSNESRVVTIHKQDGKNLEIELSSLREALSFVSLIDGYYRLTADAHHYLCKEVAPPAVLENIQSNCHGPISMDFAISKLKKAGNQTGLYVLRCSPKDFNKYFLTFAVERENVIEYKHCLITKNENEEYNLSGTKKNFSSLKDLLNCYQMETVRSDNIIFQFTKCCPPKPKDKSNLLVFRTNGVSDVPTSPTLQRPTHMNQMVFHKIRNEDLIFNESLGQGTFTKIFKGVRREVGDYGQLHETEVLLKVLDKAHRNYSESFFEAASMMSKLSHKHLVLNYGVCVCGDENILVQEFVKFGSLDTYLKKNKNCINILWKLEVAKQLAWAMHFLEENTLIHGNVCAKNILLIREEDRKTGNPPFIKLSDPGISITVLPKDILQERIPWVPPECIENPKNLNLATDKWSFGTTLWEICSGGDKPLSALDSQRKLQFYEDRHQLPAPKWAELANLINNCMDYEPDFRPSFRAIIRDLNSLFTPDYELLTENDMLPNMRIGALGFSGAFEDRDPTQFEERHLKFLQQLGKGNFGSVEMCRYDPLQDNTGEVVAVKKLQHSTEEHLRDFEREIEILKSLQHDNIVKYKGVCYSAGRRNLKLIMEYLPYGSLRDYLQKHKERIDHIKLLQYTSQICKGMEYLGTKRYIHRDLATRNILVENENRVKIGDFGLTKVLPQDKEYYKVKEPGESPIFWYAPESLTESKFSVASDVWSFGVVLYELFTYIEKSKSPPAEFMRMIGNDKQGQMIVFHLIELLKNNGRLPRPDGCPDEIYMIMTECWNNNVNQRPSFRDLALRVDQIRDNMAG
Chain of JAK2/TYK2 (P29597 whole entry): as the sequence (P29597 whole entry, the tested form may be a part) above
Chain of Tyrosine-protein kinase JAK2 (O60674 whole entry, the tested form may be a part): as the sequence (O60674 whole entry) above
Chain of Non-receptor tyrosine-protein kinase TYK2 (Mus musculus, UniProt Q9R117) (Q9R117 whole entry, the tested form may be a part): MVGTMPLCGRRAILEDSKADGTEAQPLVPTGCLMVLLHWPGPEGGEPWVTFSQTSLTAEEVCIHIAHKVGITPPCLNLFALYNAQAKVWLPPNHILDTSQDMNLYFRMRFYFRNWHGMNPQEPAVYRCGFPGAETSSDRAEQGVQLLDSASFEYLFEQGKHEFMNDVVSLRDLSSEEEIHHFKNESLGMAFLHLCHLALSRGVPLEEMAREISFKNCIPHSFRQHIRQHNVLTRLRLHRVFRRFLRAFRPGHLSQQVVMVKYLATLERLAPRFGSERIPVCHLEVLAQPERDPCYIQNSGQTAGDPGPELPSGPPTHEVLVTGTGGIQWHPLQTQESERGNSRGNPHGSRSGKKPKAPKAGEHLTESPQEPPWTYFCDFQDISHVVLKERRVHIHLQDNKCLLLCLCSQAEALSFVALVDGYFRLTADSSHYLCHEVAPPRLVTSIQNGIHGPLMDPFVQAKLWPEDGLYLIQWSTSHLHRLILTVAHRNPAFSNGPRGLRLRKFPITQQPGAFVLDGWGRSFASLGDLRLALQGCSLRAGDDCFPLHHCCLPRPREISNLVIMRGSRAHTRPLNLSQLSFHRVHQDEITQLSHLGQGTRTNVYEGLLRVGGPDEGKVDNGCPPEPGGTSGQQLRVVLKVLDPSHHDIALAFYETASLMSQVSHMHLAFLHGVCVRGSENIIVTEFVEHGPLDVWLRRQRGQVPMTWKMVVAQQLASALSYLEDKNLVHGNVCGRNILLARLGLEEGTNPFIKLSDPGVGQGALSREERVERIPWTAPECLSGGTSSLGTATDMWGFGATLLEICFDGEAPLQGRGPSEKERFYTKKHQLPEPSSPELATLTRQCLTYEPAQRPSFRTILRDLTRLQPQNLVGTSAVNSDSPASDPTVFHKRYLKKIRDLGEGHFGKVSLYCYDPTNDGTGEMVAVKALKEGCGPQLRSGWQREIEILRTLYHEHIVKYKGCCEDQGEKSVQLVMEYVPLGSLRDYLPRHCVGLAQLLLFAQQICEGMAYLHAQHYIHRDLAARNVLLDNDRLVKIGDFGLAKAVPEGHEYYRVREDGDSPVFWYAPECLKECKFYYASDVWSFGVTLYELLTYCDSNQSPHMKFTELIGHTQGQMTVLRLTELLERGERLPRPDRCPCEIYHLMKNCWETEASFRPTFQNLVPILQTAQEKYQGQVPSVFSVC

CNC(=O)c1cnc(Nc2ccc(F)cn2)cc1Nc1ccccc1S(C)(=O)=O
remaining at 10 min [1]: 85%
Cmax [2]: 0.028 µM
Cmax [3]: 0.084 µM
Cmax [4]: 0.11 µM
concentration at 3 h [5]: 0.53 µM
IC50 (JAK3/JAK1): > 12.5 µM
concentration at 0.05 h [6]: 3.5 µM
concentration at 1 h [7]: 2.1 µM
IC50 [8]: 0.00092 µM
IC50 (JAK2/JAK1): > 12.5 µM
Cmax [9]: 0.051 µM
Cmax [10]: 0.024 µM
IC50 [11]: 25 µM
AUC(0-t) [12]: 7 µM·h
concentration at 0.5 h [13]: 1.4 µM
IC50 [14]: 4.2 µM
remaining at 10 min [15]: 87%
concentration at 5 h [16]: 0.44 µM
concentration at 7 h [17]: 0.45 µM
Cmax [18]: 0.021 µM
Cmax [19]: 0.0098 µM
concentration at 0.05 h [20]: 0.78 µM
IC50 [21]: > 50 µM
IC50 [22]: 0.18 µM
Cmax [23]: 0.041 µM
AUC(0-t) [24]: 9.83 µM·h
Cmax [25]: 0.054 µM
concentration at 0.5 h [26]: 2.1 µM
half-life [27]: 3 h
AUC(0-t) [28]: 8.1 µM·h
concentration at 5 h [29]: 1.4 µM
concentration at 1 h [30]: 1.6 µM
Cmax [31]: 1.62 µM
IC50 [32]: 0.1 µM
efflux ratio [33]: 10
IC50 [34]: 0.45 µM
AUClast [35]: 0.36 µM·h
IC50 (JAK2/TYK2): 0.063 µM
Papp A→B [36]: 48 nm/s
concentration at 3 h [37]: 1.5 µM
Vd [38]: 2.8 L/kg
IC50 (JAK1/TYK2): 0.063 µM
bioavailability [39]: 35%
IC50 [40]: > 50 µM
concentration at 7 h [41]: 0.19 µM
IC50 [42]: 2.5 µM
remaining at 10 min [43]: 90%
IC50 [44]: > 50 µM
clearance [45]: 0.9 L/h/kg
Cmax [46]: 0.047 µM
Cmax [47]: 0.033 µM
Cmax [48]: 0.014 µM
logP [49]: 2.61
AUClast [50]: 0.2 µM·h
